Oligonucleotides are written 5' to 3', each unit as a sugar letter and its base; * is a phosphorothioate linkage, no mark a phosphodiester; rarer units and linkages stand in square brackets, end groups in braces. Plain capitals give the bases only. m = 2'-O-methyl; r = 2'-OH (RNA); f = 2'-fluoro
How the values were obtained:
p21 gene [1] = assay: p21 mRNA expression by RT-qPCR in Ku-7-LG cells; type: cell-based, human; details: 10 nM
Method: (§1) Ku-7-LG and T24 cells were transfected with the indicated saRNA at a final concentration of 10 nM for 3 days. After transfection, the RNA was extracted with the Qiagen RNeasy kit. After reverse transcription, the ABI 7500 fast real-time PCR system was used for qPCR amplification. The GAPDH gene was amplified as an internal reference. […] Dashed line indicates duplex Rag1-40 with no chemical modification in comparison, and the values above the line indicate stronger activity. The control was blank transfection without oligonucleotide. dsCon2 is transfected with a double-stranded scramble RNA. The value of the ordinate represents the mean±SD of 2 repeated treatments.
(§2) The control and dsCon2 were blank transfection and scramble dsRNA transfection, respectively. The values in the ordinate represent the mean±SD of 2 repeated treatments.
(§3) Human bladder cancer cells Ku-7-LG (ATCC), J82 (ATCC) and T24 (ATCC) were cultured in McCoy medium (Gibco) comprising 10% calf serum (Sigma-Aldrich) and 1% penicillin/Streptomycin (Gibco). Cells were cultured at 37° C. under 5% CO2. Ku-7-LG, J82 and T24 cells were plated into 12-well plates at 10×10^4 cells per well, transfected with the small RNA at a concentration of 10 nM (unless otherwise specified) for three days, using RNAiMax (Invitrogen, Carlsbad, CA) according to the manufacturer's instructions. Two replicate wells were set for each treatment.
(§4) After transfection, the medium was discarded and to each well 500 μl cell lysate was added and incubated at room temperature for 5 minutes. RNA was extracted with the Qiagen RNeasy kit, and after reverse transcription, qPCR analysis was performed on the ABI 7500 Fast Real-time PCR system (Applied Biosystems). Each sample was amplified in 3 replicate wells.
(§5) The PCR reaction conditions are: 95° C. for 30 seconds, 95° C. for 5 seconds, 60° C. for 30 seconds, and 40 cycles of amplification. The GAPDH gene was amplified as an internal reference at the same time. p21 was amplified with the p21F1/R1 primer pair, and the specific sequences of the amplification primers are shown in Table 1.
(§6) In order to calculate the expression value (Erel) of p21 (target gene) of a saRNA transfection sample relative to the control treatment, Formula 1 is used to input the Ct values of the target gene and the internal reference gene for calculation.
(§7) wherein, CtTm is the Ct value of the target gene from the control treatment sample; CtTs is the Ct value of the target gene from the saRNA treated sample; CtRm is the Ct value of the internal reference gene from the control treatment sample; and CtRs is the Ct value of the internal reference gene from the saRNA treated sample.
(§8) The main purpose of introducing chemical modifications to regulatory oligonucleotides of a gene is to improve their pharmaceutical properties, including enhancing in vivo stability and mitigating off-target effects (e.g., sequence-dependent targeting of unrelated genes, sequence-dependent or independent immune stimulation), while maintaining their gene regulatory capacity (gene knockdown or activation). To assess the effect of chemical modification on the RNAa activity of saRNA on the p21 gene, 10 nM unmodified (Rag1-40) and modified (Rag1-40-1 to Rag1-40-34) duplexes were transfected into Ku-7-LG and T24 cells, respectively. After 72 hours, the mRNA expression level of p21 was assessed by RT-qPCR. All duplexes induced p21 mRNA expression in all […] at least double that of the control.
(§9) In order to further evaluate the expression level of p21 mRNA after the different durations of treatment by the chemically modified saRNA duplexes, two saRNAs (RAG1-40-31 and RAG1-40-53) were randomly selected from the above chemically modified saRNA duplexes for detection. RAG1-40-31 and RAG1-40-53 were transfected into Ku-7-LG and T24 cells at a final concentration of 10 nM, for 1, 2, 3, 4, 7 and 9 days, respectively. Each treatment was set up in duplicate. […]

p21 gene [2] = assay: p21 mRNA expression by RT-qPCR in T24 cells; type: cell-based, human; details: 10 nM
Method: as §1, §2, §3, §4, §5, §6, §7, §8, §9

Ku-7-LG cells = assay: Cell cycle detection by flow cytometry in Ku-7-LG cells; type: cell-based, human; details: 48 hours
Method: RAG1-40-31 and RAG1-40-53 were transfected into Ku-7-LG cells at the final concentrations of 0.1, 1, 10 and 50 nM, and the transfection duration was 48 hours. Two replicate wells were used for each treatment. After transfection, the cell cycle was analyzed by flow cytometry, and the collected data were analyzed by MotFit software.
After transfection, the supernatant was discarded to collect cells. To each well 500 μL PBS was added for one wash and then discarded. To each well 100 μL trypsin was further added. 900 μL medium was added to stop digestion before transferring to a 1.5 mL centrifuge tube. All the cells were collected through centrifugation (400 rcf, 5 min) and counted (2×10^5 cells/200 μL PBS). Cold 70% absolute ethanol was added before incubation overnight at 4° C. After washing twice with PBS, 200 μL Krishan buffer was added before incubation at 4° C. for 1 hour. After washing twice with PBS, the supernatant was discarded and 200 μL PBS was added for cell re-suspension, then the cells were transferred to a 96-well plate and analyzed by flow cytometer. The collected data were analyzed with MotFit software.
In order to study the mechanism of cellular proliferation suppression, change in cell cycle was analyzed using flow cytometry in this example. Randomly selected saRNAs RAG1-40-31 and RAG1-40-53 were transfected into Ku-7-LG cells at final concentrations of 0.1, 1, 10 and 50 nM, respectively, for 48 hours. Each treatment was set in duplicate. Cell cycle was detected and analyzed as described in the general protocol above.

RNase A = biological target: T1, RNase A (Bos taurus, UniProt P61823); assay: saRNA stability analysis in the presence of RNase A (agarose gel); details: incubation 0 to 96 hours
T1 sequence (P61823 27-150): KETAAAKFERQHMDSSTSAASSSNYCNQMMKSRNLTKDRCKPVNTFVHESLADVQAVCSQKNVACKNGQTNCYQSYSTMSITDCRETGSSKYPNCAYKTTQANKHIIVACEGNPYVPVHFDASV

[3] = system: Rag1-40 target sequence in the 3′ UTR of firefly luciferase, COS-1 cells; assay: Analysis of off-target effects (pOff-Target dual luciferase reporter in COS-1 cells); details: lysed 48 hours after transfection, luciferase activity
Method: A 26 bp fragment comprising the target site of Rag1-40 was cloned in the antisense orientation into the 3′ UTR region of the firefly luciferase gene in a pmirGLO dual luciferase vector. Vector plasmids were co-transfected with the indicated saRNAs into COS-1 cells. Cells were lysed 48 hours after transfection, and the resulting lysates were assessed for luciferase activity. Data represent mean±SD of at least two independent experiments. Dashed line represents comparisons to blank control (top dashed line) and Rag1-40 (bottom dashed line). Values close to the top dashed line indicate no off-target effect.
A 26 bp fragment comprising the Rag1-40 target sequence was cloned in the antisense orientation into a multiple cloning site (MCS) of the 3′ untranslated region of firefly luciferase of the pmirGLO dual luciferase vector (Promega, Fitchburg, WI), to obtain pOff-Target plasmid. Following E. coli transformation and overnight incubation, plasmids for each construct were prepared by standard method. Each plasmid was transfected into COS-1 monkey kidney epithelial cells using Lipofectamine 3000 (Invitrogen, Carlsbad, CA). Subsequently, saRNA was transfected using RNAiMAX. After 24 hours of incubation, COS-1 cells were lysed with 1× lysis buffer, and luciferase activity was measured using dual luciferase reporter gene assay system (Promega, WI, USA) following manufacturer's instructions.
To assess the off-target effects of unmodified and modified saRNAs, a sequence complementary to the sense oligonucleotide strand of Rag1-40 was cloned into the 3′UTR region of the luciferase gene in a pmirGLO dual luciferase vector. The vector plasmid was co-transfected with the saRNA into COS-1 cells. Cells were lysed 48 hours after transfection and the resulting lysates were assessed for luciferase activity.

Substance: RAG1-40-53: saRNA duplex: sense mCmCAACfUCAfUfUCfUCCAAG*mU*mC (SEQ ID NO 24); antisense fUAfCfUfUGGAGAAfUGAGfUfUGG*fC*fA (SEQ ID NO 25) (sense CCAACUCAUUCUCCAAGUC; antisense UACUUGGAGAAUGAGUUGGCA; 2'-F, 2'-OMe, phosphorothioate modifications; modified_base (1)..(19) (1,2,18,19)=2′-O-methyl(2′-OMe); modified_base (6)..(12) (6,9,10,12)=2′-fluoro; modified_base (17)..(19) (17,18,19)=phosphorothioate (PS) backbone modification; modified_base (1)..(21) (1,3,4,5,12,16,17,20,21)=2′-fluoro; modified_base (20)..(21) (20,21)=phosphorothioate (PS) backbone modification)
- increase of expression level of p21 mRNA compared with the control group (p21 gene [1]; 1 day): 1.4 fold
- increase of expression level of p21 mRNA compared with the control group (p21 gene [1]; 2 days): 13.0 fold
- increase of expression level of p21 mRNA compared with the control group (p21 gene [1]; 3 days): 9.1 fold
- increase of expression level of p21 mRNA compared with the control group (p21 gene [1]; 4 days): 4.5 fold
- increase of expression level of p21 mRNA compared with the control group (p21 gene [1]; 7 days): 3.2 fold
- increase of expression level of p21 mRNA compared with the control group (p21 gene [1]; 9 days): 4.1 fold
- increase of expression level of p21 mRNA compared with the control group (p21 gene [2]; 1 day): 2.2 fold
- increase of expression level of p21 mRNA compared with the control group (p21 gene [2]; 2 days): 3.5 fold
- increase of expression level of p21 mRNA compared with the control group (p21 gene [2]; 3 days): 7.8 fold
- increase of expression level of p21 mRNA compared with the control group (p21 gene [2]; 4 days): 4.5 fold
- increase of expression level of p21 mRNA compared with the control group (p21 gene [2]; 7 days): 1.2 fold
- increase of expression level of p21 mRNA compared with the control group (p21 gene [2]; 9 days): 1.1 fold
- percentage of cells in DNA anaphase/mitosis (G2/M) (Ku-7-LG cells; 0.1 nM): 7%
- percentage of cells in DNA replication phase (S phase) (Ku-7-LG cells; 0.1 nM): 36%
- percentage of cells in prophase of DNA synthesis (G0/G1) (Ku-7-LG cells; 0.1 nM): 57%
- percentage of cells in DNA anaphase/mitosis (G2/M) (Ku-7-LG cells; 1 nM): 10%
- percentage of cells in DNA replication phase (S phase) (Ku-7-LG cells; 1 nM): 24%
- percentage of cells in prophase of DNA synthesis (G0/G1) (Ku-7-LG cells; 1 nM): 66%
- percentage of cells in DNA anaphase/mitosis (G2/M) (Ku-7-LG cells; 10 nM): 9%
- percentage of cells in DNA replication phase (S phase) (Ku-7-LG cells; 10 nM): 12%
- percentage of cells in prophase of DNA synthesis (G0/G1) (Ku-7-LG cells; 10 nM): 79%
- percentage of cells in DNA anaphase/mitosis (G2/M) (Ku-7-LG cells; 50 nM): 8%
- percentage of cells in DNA replication phase (S phase) (Ku-7-LG cells; 50 nM): 16%
- percentage of cells in prophase of DNA synthesis (G0/G1) (Ku-7-LG cells; 50 nM): 76%

Substance: Rag1-40-1: saRNA duplex: sense mCmCAACUCAUUCUCCAAGmUmC (SEQ ID NO 5); antisense fUAfCfUfUGGAGAAfUGAGfUfUGGfCA (SEQ ID NO 6) (sense CCAACUCAUUCUCCAAGUC; antisense UACUUGGAGAAUGAGUUGGCA; 2'-OMe and 2'-F modifications; modified_base (1)..(19) (1,2,18,19)=2′-O-methyl(2′-OMe); modified_base (1)..(20) (1,3,4,5,12,16,17,20)=2′-fluoro)
- degradation of duplex at 96 hours (RNase A): little or no signs of degradation
- off-target effect compared to unmodified Rag1-40, in words [3]: completely inhibited

Substance: Rag1-40-14: saRNA duplex: sense fCfCAACUCAUUCUCCAAGfUfC (SEQ ID NO 14); antisense fU*A*fCfUfUGGAGAAfUGAGfUfUGG*fC*A (SEQ ID NO 11) (sense CCAACUCAUUCUCCAAGUC; antisense UACUUGGAGAAUGAGUUGGCA; 2'-F modifications, phosphorothioates; modified_base (1)..(19) (1,2,18,19)=2′-fluoro; modified_base (1)..(21) (1,2,3,19,20,21)=phosphorothioate (PS) backbone modification; modified_base (1)..(20) (1,3,4,5,12,16,17,20)=2′-fluoro)
- degradation of duplex at 96 hours (RNase A): little or no signs of degradation
- off-target effect compared to unmodified Rag1-40, in words [3]: mitigated or similar off-target effects

Substance: Rag1-40-19: saRNA duplex: sense mCmCAACUCAUUCUCCAAG*U*C (SEQ ID NO 15); antisense fUmAfCfUfUmGmGmAmGmAmAfUmGmAmGfUfUmGmGfCmA (SEQ ID NO 8) (sense mCmCrArArCrUrCrArUrUrCrUrCrCrArArG*rU*rC)
- degradation of duplex at 96 hours (RNase A): little or no signs of degradation
- off-target effect compared to unmodified Rag1-40, in words [3]: mitigated or similar off-target effects

Source: patent US20240301409A1, “Chemically Modified Small Activating RNA” (RACTIGEN THERAPEUTICS, priority 2021, published 2024)
